{"source": "ChEMBL document CHEMBL1138938", "about": "“Design, synthesis, and SAR studies on a series of 2-pyridinylpiperazines as potent antagonists of the melanocortin-4 receptor” (Bioorg Med Chem Lett, 2006)", "data": [{"target": "Melanocortin receptor 4 (Homo sapiens, UniProt P32245)", "sequence (P32245 whole entry)": "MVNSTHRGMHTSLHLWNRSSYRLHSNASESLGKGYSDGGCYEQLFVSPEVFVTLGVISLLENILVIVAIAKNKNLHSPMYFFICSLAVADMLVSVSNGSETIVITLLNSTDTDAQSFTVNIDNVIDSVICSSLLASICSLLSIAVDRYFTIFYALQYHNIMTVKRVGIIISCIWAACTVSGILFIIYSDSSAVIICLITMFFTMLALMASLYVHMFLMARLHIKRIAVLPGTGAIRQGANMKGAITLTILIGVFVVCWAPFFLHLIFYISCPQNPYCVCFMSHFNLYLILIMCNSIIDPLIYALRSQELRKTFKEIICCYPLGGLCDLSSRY", "test": "Displacement of [125I]NDP-MSH from human MC4R expressed in HEK293 cells", "format": "cell-based", "conditions": "not given", "units": {"Ki": "nM"}, "values": [{"smiles": "COc1ccccc1CCNCc1cccnc1N1CCN(C(=O)[C@@H](Cc2ccc(Cl)cc2Cl)NC(=O)CCN)CC1", "Ki": 6.7}, {"smiles": "CC(CO)NCc1cccnc1N1CCN(C(=O)[C@@H](Cc2ccc(Cl)cc2Cl)NC(=O)CCN)CC1C", "note": "(stereo not given in full)", "Ki": 420}, {"smiles": "CC(=O)N[C@H](Cc1ccc(Cl)cc1Cl)C(=O)N1CCN(c2ncccc2CNCCc2cccs2)CC1", "Ki": 21}, {"smiles": "NCCC(=O)N[C@H](Cc1ccc(Cl)cc1Cl)C(=O)N1CCN(c2ncccc2CNC(=O)c2ccccc2)CC1", "Ki": 1800}, {"smiles": "COc1ccccc1CCNCc1ccccc1N1CCN(C(=O)[C@@H](Cc2ccc(Cl)cc2Cl)NC(=O)CCN)CC1", "Ki": 1.6}, {"smiles": "NCCC(=O)N[C@H](Cc1ccc(Cl)cc1Cl)C(=O)N1CCN(c2ncccc2CNC(=O)Nc2ccccc2F)CC1", "Ki": 1100}, {"smiles": "COCC(C)NCc1ccccc1N1CCN(C(=O)[C@@H](Cc2ccc(Cl)cc2Cl)NC(=O)CCN)CC1", "note": "(stereo not given in full)", "Ki": 8.8}, {"smiles": "CC(=O)NCc1cccnc1N1CCN(C(=O)[C@@H](Cc2ccc(Cl)cc2Cl)NC(=O)CCN)CC1", "Ki": 2800}, {"smiles": "COCC(=O)NCc1cccnc1N1CCN(C(=O)[C@@H](Cc2ccc(Cl)cc2Cl)NC(=O)CCN)CC1", "Ki": 2800}, {"smiles": "COc1ccc(C(=O)NCc2cccnc2N2CCN(C(=O)[C@@H](Cc3ccc(Cl)cc3Cl)NC(=O)CCN)CC2)cc1", "Ki": 1500}, {"smiles": "COc1ccc(CC(=O)NCc2cccnc2N2CCN(C(=O)[C@@H](Cc3ccc(Cl)cc3Cl)NC(=O)CCN)CC2)cc1", "Ki": 550}, {"smiles": "COc1ccccc1NC(=O)NCc1cccnc1N1CCN(C(=O)[C@@H](Cc2ccc(Cl)cc2Cl)NC(=O)CCN)CC1", "Ki": 1300}, {"smiles": "NCCC(=O)N[C@H](Cc1ccc(Cl)cc1Cl)C(=O)N1CCN(c2ncccc2CNC(=O)c2ccc(F)cc2)CC1", "Ki": 2200}, {"smiles": "NCCC(=O)N[C@H](Cc1ccc(Cl)cc1Cl)C(=O)N1CCN(c2ncccc2CNC(=O)Cc2ccc(F)cc2)CC1", "Ki": 1000}, {"smiles": "NCCC(=O)N[C@H](Cc1ccc(Cl)cc1Cl)C(=O)N1CCN(c2ncccc2CNCC(F)(F)F)CC1", "Ki": 170}, {"smiles": "NCCC(=O)N[C@H](Cc1ccc(Cl)cc1Cl)C(=O)N1CCN(c2ncccc2CNC(=O)c2cccs2)CC1", "Ki": 1800}, {"smiles": "CC(C)(CO)NCc1cccnc1N1CCN(C(=O)[C@@H](Cc2ccc(Cl)cc2Cl)NC(=O)CCN)CC1", "Ki": 480}, {"smiles": "COc1ccccc1CC(=O)NCc1cccnc1N1CCN(C(=O)[C@@H](Cc2ccc(Cl)cc2Cl)NC(=O)CCN)CC1", "Ki": 360}, {"smiles": "COCC(C)NCc1cccnc1N1CCN(C(=O)[C@@H](Cc2ccc(Cl)cc2Cl)NC(C)=O)CC1", "note": "(stereo not given in full)", "Ki": 180}, {"smiles": "COCC(C)NCc1cccnc1N1CCN(C(=O)[C@@H](Cc2ccc(Cl)cc2Cl)NC(=O)CCN)CC1", "note": "(stereo not given in full)", "Ki": 87}, {"smiles": "CC(C)NC(=O)NCc1cccnc1N1CCN(C(=O)[C@@H](Cc2ccc(Cl)cc2Cl)NC(=O)CCN)CC1", "Ki": 1300}, {"smiles": "NCCC(=O)N[C@H](Cc1ccc(Cl)cc1Cl)C(=O)N1CCN(c2ncccc2CNC(=O)c2ccco2)CC1", "Ki": 2600}, {"smiles": "COc1ccccc1CCNCc1cccnc1N1CCN(C(=O)[C@@H](Cc2ccc(Cl)cc2Cl)NC(C)=O)CC1", "Ki": 10}, {"smiles": "NCCC(=O)N[C@H](Cc1ccc(Cl)cc1Cl)C(=O)N1CCN(c2ncccc2CNCCc2ccccc2F)CC1", "Ki": 12}, {"smiles": "NCCC(=O)N[C@H](Cc1ccc(Cl)cc1Cl)C(=O)N1CCN(c2ncccc2CNCc2ccccc2F)CC1", "Ki": 130}, {"smiles": "CCC(COC)NCc1cccnc1N1CCN(C(=O)[C@@H](Cc2ccc(Cl)cc2Cl)NC(=O)CCN)CC1", "note": "(stereo not given in full)", "Ki": 200}, {"smiles": "NCCC(=O)N[C@H](Cc1ccc(Cl)cc1Cl)C(=O)N1CCN(c2ncccc2CNC(=O)Nc2ccccc2)CC1", "Ki": 710}, {"smiles": "NCCC(=O)N[C@H](Cc1ccc(Cl)cc1Cl)C(=O)N1CCN(c2ncccc2CNC(=O)NCc2ccccc2F)CC1", "Ki": 1000}, {"smiles": "CCC(CO)NCc1cccnc1N1CCN(C(=O)[C@@H](Cc2ccc(Cl)cc2Cl)NC(=O)CCN)CC1", "note": "(stereo not given in full)", "Ki": 710}, {"smiles": "NCCC(=O)N[C@H](Cc1ccc(Cl)cc1Cl)C(=O)N1CCN(c2ncccc2CNCCO)CC1", "Ki": 520}, {"smiles": "NCCC(=O)N[C@H](Cc1ccc(Cl)cc1Cl)C(=O)N1CCN(c2ncccc2CNC(=O)OCc2ccccc2)CC1", "Ki": 440}, {"smiles": "COc1ccccc1OC(=O)NCc1cccnc1N1CCN(C(=O)[C@@H](Cc2ccc(Cl)cc2Cl)NC(=O)CCN)CC1", "Ki": 1800}, {"smiles": "NCCC(=O)N[C@H](Cc1ccc(Cl)cc1Cl)C(=O)N1CCN(c2ncccc2CNC(CO)CO)CC1", "Ki": 1500}, {"smiles": "NCCC(=O)N[C@H](Cc1ccc(Cl)cc1Cl)C(=O)N1CCN(c2ncccc2CNC(=O)Oc2ccccc2)CC1", "Ki": 1200}, {"smiles": "COc1ccccc1CNC(=O)NCc1cccnc1N1CCN(C(=O)[C@@H](Cc2ccc(Cl)cc2Cl)NC(=O)CCN)CC1", "Ki": 560}, {"smiles": "NCCC(=O)N[C@H](Cc1ccc(Cl)cc1Cl)C(=O)N1CCN(c2ncccc2CNC(=O)Cc2ccccc2F)CC1", "Ki": 450}, {"smiles": "NCCC(=O)N[C@H](Cc1ccc(Cl)cc1Cl)C(=O)N1CCN(c2ncccc2CNC(=O)NCc2cccs2)CC1", "Ki": 750}, {"smiles": "NCCC(=O)N[C@H](Cc1ccc(Cl)cc1Cl)C(=O)N1CCN(c2ncccc2CNCCc2cccs2)CC1", "Ki": 15}, {"smiles": "NCCC(=O)N[C@H](Cc1ccc(Cl)cc1Cl)C(=O)N1CCN(c2ncccc2CNC(=O)Cc2cccs2)CC1", "Ki": 310}]}, {"target": "Melanocortin receptor 3 (Homo sapiens, UniProt P41968)", "sequence (P41968 whole entry)": "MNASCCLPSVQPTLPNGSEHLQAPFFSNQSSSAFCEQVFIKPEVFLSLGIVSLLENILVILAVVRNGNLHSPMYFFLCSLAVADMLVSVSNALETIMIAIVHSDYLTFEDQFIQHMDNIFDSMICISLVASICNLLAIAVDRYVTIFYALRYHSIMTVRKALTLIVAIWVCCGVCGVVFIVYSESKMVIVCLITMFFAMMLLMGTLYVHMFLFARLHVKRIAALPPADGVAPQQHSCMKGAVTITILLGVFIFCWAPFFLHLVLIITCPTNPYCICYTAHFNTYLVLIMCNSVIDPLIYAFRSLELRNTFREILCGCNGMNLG", "test": "Displacement of [125I]NDP-MSH from human MC3R expressed in HEK293 cells", "format": "cell-based", "conditions": "not given", "units": {"Ki": "nM"}, "values": [{"smiles": "COc1ccccc1CCNCc1cccnc1N1CCN(C(=O)[C@@H](Cc2ccc(Cl)cc2Cl)NC(=O)CCN)CC1", "Ki": 5000}]}, {"target": "Melanocortin receptor 5 (Homo sapiens, UniProt P33032)", "sequence (P33032 whole entry)": "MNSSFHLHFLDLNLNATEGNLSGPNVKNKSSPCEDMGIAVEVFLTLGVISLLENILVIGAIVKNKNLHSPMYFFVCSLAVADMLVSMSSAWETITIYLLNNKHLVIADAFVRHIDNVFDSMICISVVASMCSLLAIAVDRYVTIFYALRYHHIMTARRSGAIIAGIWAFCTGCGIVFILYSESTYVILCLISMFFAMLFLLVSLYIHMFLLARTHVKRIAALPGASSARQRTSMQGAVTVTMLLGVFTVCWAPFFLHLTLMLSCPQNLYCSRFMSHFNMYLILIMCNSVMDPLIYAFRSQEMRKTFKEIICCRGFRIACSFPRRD", "test": "Displacement of [125I]NDP-MSH from human MC5R expressed in HEK293 cells", "format": "cell-based", "conditions": "not given", "units": {"Ki": "nM"}, "values": [{"smiles": "COc1ccccc1CCNCc1cccnc1N1CCN(C(=O)[C@@H](Cc2ccc(Cl)cc2Cl)NC(=O)CCN)CC1", "Ki": 2100}]}, {"test_system": "not listed separately", "test": "Intrinsic clearance in rat liver microsome", "format": "ADME", "conditions": "liver microsomes", "units": {"CLint scaled": "mL/min/kg"}, "values": [{"smiles": "COc1ccccc1CCNCc1cccnc1N1CCN(C(=O)[C@@H](Cc2ccc(Cl)cc2Cl)NC(=O)CCN)CC1", "CLint scaled": 390}, {"smiles": "COc1ccccc1CCNCc1cccnc1N1CCN(C(=O)[C@@H](Cc2ccc(Cl)cc2Cl)NC(C)=O)CC1", "CLint scaled": 3500}]}, {"test_system": "not listed separately", "test": "Oral bioavailability in rat", "format": "ADME, organism-based", "conditions": "in vivo", "units": {"bioavailability": "%"}, "values": [{"smiles": "COc1ccccc1CCNCc1cccnc1N1CCN(C(=O)[C@@H](Cc2ccc(Cl)cc2Cl)NC(=O)CCN)CC1", "bioavailability": 15}, {"smiles": "COc1ccccc1CCNCc1cccnc1N1CCN(C(=O)[C@@H](Cc2ccc(Cl)cc2Cl)NC(C)=O)CC1", "bioavailability": 0}]}]}
